Experimental data from ChEMBL document CHEMBL4706481, “Optimization and evaluation of novel tetrahydropyrido[4,3-d]pyrimidine derivatives as ATX inhibitors for cardiac and hepatic fibrosis” (Eur J Med Chem, 2020).
Calls of active or inactive are those of the source. The rule behind the calls is not given here.

test system: Mus musculus; assay: Antifibrotic activity against CCl4-induced fibrosis in Kunming mouse assessed as decrease in inflammatory cells infiltration at 20 mg/kg, po administered for 2 weeks post CCl-4 challenge by hematoxylin and eosin staining based light microscopic analysis; type: functional, organism-based; settings: not given

Structure (SMILES)	Activity
O=C(N/N=C/c1ccc(Cl)cc1)N1CCc2ncnc(Nc3cccc(C(F)(F)F)c3)c2C1	Active

test system: Mus musculus; assay: Antifibrotic activity against CCl4-induced fibrosis in Kunming mouse assessed as loss of inflammatory cells at 40 mg/kg, po administered for 2 weeks post CCl-4 challenge by Masson staining based light microscopic analysis; type: functional, organism-based; settings: not given

Structure (SMILES)	Activity
O=C(N/N=C/c1ccc(Cl)cc1)N1CCc2ncnc(Nc3cccc(C(F)(F)F)c3)c2C1	Active

biological target: Autotaxin (Homo sapiens, UniProt Q13822); assay: Inhibition of glycosylated human ATX using FS-3 as substrate preincubated for 45 mins under shaking condition followed by substrate addition and measured after 45 mins by fluorescence assay; settings: not given

Structure (SMILES)	IC50 [nM]
O=C(N/N=C/c1ccc(Cl)cc1)N1CCc2ncnc(Nc3cccc(Br)c3)c2C1	27.5
O=C(N/N=C/c1ccc(OC(F)(F)F)cc1)N1CCc2ncnc(Nc3cccc(C(F)(F)F)c3)c2C1	41.2
O=C(N/N=C/c1ccc(Cl)cc1)N1CCc2ncnc(Nc3cccc(C(F)(F)F)c3)c2C1	15.3
O=C(N/N=C/c1ccc(Cl)cc1Cl)N1CCc2ncnc(Nc3cccc(C(F)(F)F)c3)c2C1	33.9
CS(=O)(=O)c1ccc(/C=N/NC(=O)N2CCc3ncnc(Nc4ccc(F)c(Cl)c4)c3C2)cc1	21
CS(=O)(=O)c1ccc(/C=N/NC(=O)N2CCc3ncnc(Nc4cccc(Br)c4)c3C2)cc1	34.7
O=C(N/N=C/c1cc(C(F)(F)F)cc(C(F)(F)F)c1)N1CCc2ncnc(Nc3cccc(Br)c3)c2C1	29.1
CS(=O)(=O)c1ccc(/C=N/NC(=O)N2CCc3ncnc(Nc4cccc(C(F)(F)F)c4)c3C2)cc1	35.8

Further compounds by falling IC50, results first:

IC50 [nM]	Structure (SMILES)
43.8	O=C(N/N=C/c1cc([N+](=O)[O-])ccc1Cl)N1CCc2ncnc(Nc3ccc(F)c(Cl)c3)c2C1
35.3	O=C(N/N=C/c1cccc(Br)c1)N1CCc2ncnc(Nc3cccc(C(F)(F)F)c3)c2C1
30.2	O=C(N/N=C/c1cccc(C(F)(F)F)c1)N1CCc2ncnc(Nc3cccc(Br)c3)c2C1
29.1	Cc1ccc(/C=N/NC(=O)N2CCc3ncnc(Nc4cccc(C(F)(F)F)c4)c3C2)cc1
24.2	O=C(N/N=C/c1ccc(Cl)cc1)N1CCc2ncnc(Nc3ccc(F)c(Cl)c3)c2C1

test system: Cardiac fibroblast; assay: Antifibrotic activity against TGFbeta-induced fibrosis in mouse cardiac fibroblasts assessed as reduction in collagen content at 10 ug/ml pretreated with TGFbeta followed by compound treatment and measured after 12 hrs by SDS-PAGE analysis; type: functional; settings: dose 10.0 µg/ml

Structure (SMILES)	Activity
O=C(N/N=C/c1ccc(Cl)cc1)N1CCc2ncnc(Nc3ccc(F)c(Cl)c3)c2C1	Active
O=C(N/N=C/c1ccc(Cl)cc1)N1CCc2ncnc(Nc3cccc(C(F)(F)F)c3)c2C1	Active

test system: Mus musculus; assay: Antifibrotic activity against CCl4-induced fibrosis in Kunming mouse assessed as decrease in steatosis at 20 mg/kg, po administered for 2 weeks post CCl-4 challenge by Mason staining based light microscopic analysis; type: functional, organism-based; settings: not given

Structure (SMILES)	Activity
O=C(N/N=C/c1ccc(Cl)cc1)N1CCc2ncnc(Nc3cccc(C(F)(F)F)c3)c2C1	Active

test system: Mus musculus; assay: Antifibrotic activity against CCl4-induced fibrosis in Kunming mouse assessed as decrease in inflammatory cells infiltration at 20 mg/kg, po administered for 2 weeks post CCl-4 challenge by Masson staining based light microscopic analysis; type: functional, organism-based; settings: not given

Structure (SMILES)	Activity
O=C(N/N=C/c1ccc(Cl)cc1)N1CCc2ncnc(Nc3cccc(C(F)(F)F)c3)c2C1	Active

test system: not listed separately; assay: Antiproliferative activity against Sprague-Dawley rat T-HSC/Cl-6 assessed as inhibition of cell proliferation measured after 24 hrs by MTT assay; type: functional; settings: T-HSC/Cl-6, 24 h

Structure (SMILES)	IC50 [nM]
O=C(N/N=C/c1ccc(Cl)cc1)N1CCc2ncnc(Nc3ccc(F)c(Cl)c3)c2C1	1100
Cc1ccc(/C=N/NC(=O)N2CCc3ncnc(Nc4cccc(C(F)(F)F)c4)c3C2)cc1	1140
O=C(N/N=C/c1ccc(Cl)cc1)N1CCc2ncnc(Nc3cccc(C(F)(F)F)c3)c2C1	780

test system: not listed separately; assay: Antiproliferative activity against Wistar/Sprague-Dawley rat cardiac fibroblasts assessed as inhibition of cell proliferation measured after 24 hrs by MTT assay; type: functional, CF [Rat heart fibroblast]; settings: Fibroblast

Structure (SMILES)	IC50 [nM]
O=C(N/N=C/c1ccc(Cl)cc1)N1CCc2ncnc(Nc3ccc(F)c(Cl)c3)c2C1	870
Cc1ccc(/C=N/NC(=O)N2CCc3ncnc(Nc4cccc(C(F)(F)F)c4)c3C2)cc1	1510
O=C(N/N=C/c1ccc(Cl)cc1)N1CCc2ncnc(Nc3cccc(C(F)(F)F)c3)c2C1	1210

test system: Mus musculus; assay: Antifibrotic activity against CCl4-induced fibrosis in Kunming mouse assessed as decrease in steatosis at 20 mg/kg, po administered for 2 weeks post CCl-4 challenge by hematoxylin and eosin staining based light microscopic analysis; type: functional, organism-based; settings: not given

Structure (SMILES)	Activity
O=C(N/N=C/c1ccc(Cl)cc1)N1CCc2ncnc(Nc3cccc(C(F)(F)F)c3)c2C1	Active

test system: Mus musculus; assay: Antifibrotic activity against CCl4-induced fibrosis in Kunming mouse assessed as loss of fiber accumulation at 40 mg/kg, po administered for 2 weeks post CCl-4 challenge by Masson staining based light microscopic analysis; type: functional, organism-based; settings: not given

Structure (SMILES)	Activity
O=C(N/N=C/c1ccc(Cl)cc1)N1CCc2ncnc(Nc3cccc(C(F)(F)F)c3)c2C1	Active

test system: not listed separately; assay: Antifibrotic activity against TGFbeta-induced fibrosis in mouse cardiac fibroblasts assessed as reduction in collagen content at 10 ug/ml pretreated with TGFbeta followed by compound treatment and measured after 12 hrs by SDS-PAGE analysis relative to control; type: functional, Cardiac fibroblast; set-up: scale not given: the % may be the effect or the level left; settings: dose 10 µg/ml

Structure (SMILES)	Activity [%]
O=C(N/N=C/c1ccc(Cl)cc1)N1CCc2ncnc(Nc3ccc(F)c(Cl)c3)c2C1	74.4

test system: Mus musculus; assay: Antifibrotic activity against CCl4-induced fibrosis in Kunming mouse assessed as decrease in fiber accumulation at 20 mg/kg, po administered for 2 weeks post CCl-4 challenge by hematoxylin and eosin staining based light microscopic analysis; type: functional, organism-based; settings: not given

Structure (SMILES)	Activity
O=C(N/N=C/c1ccc(Cl)cc1)N1CCc2ncnc(Nc3cccc(C(F)(F)F)c3)c2C1	Active

test system: Mus musculus; assay: Antifibrotic activity against CCl4-induced fibrosis in Kunming mouse assessed as decrease in fiber accumulation at 20 mg/kg, po administered for 2 weeks post CCl-4 challenge by Masson staining based light microscopic analysis; type: functional, organism-based; settings: not given

Structure (SMILES)	Activity
O=C(N/N=C/c1ccc(Cl)cc1)N1CCc2ncnc(Nc3cccc(C(F)(F)F)c3)c2C1	Active

test system: not listed separately; assay: Antiproliferative activity against Sprague-Dawley rat T-HSC/Cl-6 assessed as inhibition of cell proliferation at 10 uM measured after 24 hrs by MTT assay relative to control; type: functional; settings: not given

Structure (SMILES)	inhibition at 10 µM [%]
O=C(N/N=C/c1ccc(Cl)cc1)N1CCc2ncnc(Nc3cccc(Br)c3)c2C1	72.5
O=C(N/N=C/c1ccc(Cl)cc1)N1CCc2ncnc(Nc3ccc(F)c(Cl)c3)c2C1	79.4
O=C(N/N=C/c1cccc(Br)c1)N1CCc2ncnc(Nc3cccc(C(F)(F)F)c3)c2C1	68.1
O=C(N/N=C/c1ccc(OC(F)(F)F)cc1)N1CCc2ncnc(Nc3cccc(C(F)(F)F)c3)c2C1	65
O=C(N/N=C/c1cc([N+](=O)[O-])ccc1Cl)N1CCc2ncnc(Nc3ccc(F)c(Cl)c3)c2C1	74.7
Cc1ccc(/C=N/NC(=O)N2CCc3ncnc(Nc4cccc(C(F)(F)F)c4)c3C2)cc1	77.2
O=C(N/N=C/c1ccc(Cl)cc1)N1CCc2ncnc(Nc3cccc(C(F)(F)F)c3)c2C1	83.7
O=C(N/N=C/c1ccc(Cl)cc1Cl)N1CCc2ncnc(Nc3cccc(C(F)(F)F)c3)c2C1	66.3
CS(=O)(=O)c1ccc(/C=N/NC(=O)N2CCc3ncnc(Nc4ccc(F)c(Cl)c4)c3C2)cc1	60.3
CS(=O)(=O)c1ccc(/C=N/NC(=O)N2CCc3ncnc(Nc4cccc(Br)c4)c3C2)cc1	55
O=C(N/N=C/c1cccc(C(F)(F)F)c1)N1CCc2ncnc(Nc3cccc(Br)c3)c2C1	64.8
O=C(N/N=C/c1cc(C(F)(F)F)cc(C(F)(F)F)c1)N1CCc2ncnc(Nc3cccc(Br)c3)c2C1	62.1
CS(=O)(=O)c1ccc(/C=N/NC(=O)N2CCc3ncnc(Nc4cccc(C(F)(F)F)c4)c3C2)cc1	61.5

test system: Mus musculus; assay: Antifibrotic activity against CCl4-induced fibrosis in Kunming mouse assessed as loss of fiber accumulation at 40 mg/kg, po administered for 2 weeks post CCl-4 challenge by hematoxylin and eosin staining based light microscopic analysis; type: functional, organism-based; settings: not given

Structure (SMILES)	Activity
O=C(N/N=C/c1ccc(Cl)cc1)N1CCc2ncnc(Nc3cccc(C(F)(F)F)c3)c2C1	Active

test system: Mus musculus; assay: Antifibrotic activity against CCl4-induced fibrosis in Kunming mouse assessed as loss of inflammatory cells at 40 mg/kg, po administered for 2 weeks post CCl-4 challenge by hematoxylin and eosin staining based light microscopic analysis; type: functional, organism-based; settings: not given

Structure (SMILES)	Activity
O=C(N/N=C/c1ccc(Cl)cc1)N1CCc2ncnc(Nc3cccc(C(F)(F)F)c3)c2C1	Active

test system: not listed separately; assay: Antiproliferative activity against Wistar/Sprague-Dawley rat cardiac fibroblasts assessed as inhibition of cell proliferation at 10 uM measured after 24 hrs by MTT assay relative to control; type: functional, CF [Rat heart fibroblast]; settings: Fibroblast

Structure (SMILES)	inhibition at 10 µM [%]
O=C(N/N=C/c1ccc(Cl)cc1)N1CCc2ncnc(Nc3cccc(Br)c3)c2C1	61.1
O=C(N/N=C/c1ccc(Cl)cc1)N1CCc2ncnc(Nc3ccc(F)c(Cl)c3)c2C1	81.5
O=C(N/N=C/c1cccc(Br)c1)N1CCc2ncnc(Nc3cccc(C(F)(F)F)c3)c2C1	54.6
O=C(N/N=C/c1ccc(OC(F)(F)F)cc1)N1CCc2ncnc(Nc3cccc(C(F)(F)F)c3)c2C1	67.1
O=C(N/N=C/c1cc([N+](=O)[O-])ccc1Cl)N1CCc2ncnc(Nc3ccc(F)c(Cl)c3)c2C1	72.1
Cc1ccc(/C=N/NC(=O)N2CCc3ncnc(Nc4cccc(C(F)(F)F)c4)c3C2)cc1	72.6
O=C(N/N=C/c1ccc(Cl)cc1)N1CCc2ncnc(Nc3cccc(C(F)(F)F)c3)c2C1	73.8
O=C(N/N=C/c1ccc(Cl)cc1Cl)N1CCc2ncnc(Nc3cccc(C(F)(F)F)c3)c2C1	58.5
CS(=O)(=O)c1ccc(/C=N/NC(=O)N2CCc3ncnc(Nc4ccc(F)c(Cl)c4)c3C2)cc1	66.2
CS(=O)(=O)c1ccc(/C=N/NC(=O)N2CCc3ncnc(Nc4cccc(Br)c4)c3C2)cc1	43.7
O=C(N/N=C/c1cccc(C(F)(F)F)c1)N1CCc2ncnc(Nc3cccc(Br)c3)c2C1	51.8
O=C(N/N=C/c1cc(C(F)(F)F)cc(C(F)(F)F)c1)N1CCc2ncnc(Nc3cccc(Br)c3)c2C1	70.1
CS(=O)(=O)c1ccc(/C=N/NC(=O)N2CCc3ncnc(Nc4cccc(C(F)(F)F)c4)c3C2)cc1	45.9

test system: Mus musculus; assay: Antifibrotic activity against CCl4-induced fibrosis in Kunming mouse assessed as loss of bile ductules at 40 mg/kg, po administered for 2 weeks post CCl-4 challenge by hematoxylin and eosin staining based light microscopic analysis; type: functional, organism-based; settings: not given

Structure (SMILES)	Activity
O=C(N/N=C/c1ccc(Cl)cc1)N1CCc2ncnc(Nc3cccc(C(F)(F)F)c3)c2C1	Active

test system: Mus musculus; assay: Antifibrotic activity against CCl4-induced fibrosis in Kunming mouse assessed as loss of bile ductules at 40 mg/kg, po administered for 2 weeks post CCl-4 challenge by Masson staining based light microscopic analysis; type: functional, organism-based; settings: not given

Structure (SMILES)	Activity
O=C(N/N=C/c1ccc(Cl)cc1)N1CCc2ncnc(Nc3cccc(C(F)(F)F)c3)c2C1	Active
